Legend:
Assay type in all cases: in vivo
Conditions in all cases: 19 to 21 days
corn (Zea mays) = assay: Test B preemergence, corn
Source text: (§1) Seeds of plant species selected from blackgrass (Alopecurus myosuroides), Italian ryegrass (Lolium multiflorum), wheat, winter (winter wheat, Triticum aestivum), corn (Zea mays), large (Lg) crabgrass (Digitaria sanguinalis), giant foxtail (Setaria faberi), johnsongrass (Sorghum halepense), ragweed (common ragweed, Ambrosia elatior), soybean (Glycine max), barnyardgrass (Echinochloa crus-galli), waterhemp (common waterhemp, Amaranthus rudis), palmer pigweed (Amaranthus palmeri), and surinam grass (Brachiaria decumbens), were planted into a silt loam soil and treated preemergence with test chemicals formulated in a non-phytotoxic solvent mixture which included a surfactant.
(§2) Treated plants and controls were maintained in a greenhouse for 19 to 21 days, after which time all species were compared to controls and visually evaluated. Plant response ratings, summarized in Table B, are based on a scale of 0 to 100 where 0 is no effect and 100 is complete control.

[1] = system: velvetleaf (Abutilon theophrasti); assay: Test C preemergence, velvetleaf
Source text: Seeds of plant species selected from corn (Zea mays), soybean (Glycine max), velvetleaf (Abutilon theophrasti), palmer pigweed (Amaranthus palmeri), waterhemp (common waterhemp, Amaranthus rudis), surinam grass (Brachiaria decumbens), large (Lg) crabgrass (Digitaria sanguinalis), fall panicum (Panicum dichotomiflorum), giant foxtail (Setaria faberi), ragweed (common ragweed, Ambrosia elatior), barnyardgrass (Echinochloa crus-galli), E. Black Nightshade (Solanum ptycanthum), and horseweed (Conyza canadensis), were planted into a silt loam soil and treated preemergence with test chemicals formulated in a non-phytotoxic solvent mixture which included a surfactant.
Treated plants and controls were maintained in a greenhouse for 19 to 21 days, after which time all species were compared to controls and visually evaluated. Plant response ratings, summarized in Table C, are based on a scale of 0 to 100 where 0 is no effect and 100 is complete control.

[2] = system: ragweed (common ragweed, Ambrosia elatior); assay: Test B preemergence, ragweed
Source text: as §1, §2

[3] = system: Italian ryegrass (Lolium multiflorum); assay: Test B preemergence, Italian ryegrass
Source text: as §1, §2

SMILES: CN1C[C@H](c2cc(C(F)(F)F)n(C)n2)[C@@H](C(=O)Nc2cccc(F)c2F)C1=O [Compound 13, (3S,4R)—N-(2,3-difluorophenyl)-1-methyl-4-[1-methyl-5-(trifluoromethyl)-1H-pyrazol-3-yl]-2-oxo-3-pyrrolidinecarboxamide]
- Plant response rating (0 no effect, 100 complete control) Corn (corn (Zea mays); 16 g ai/ha Preemergence): 3
- Plant response rating (0 no effect, 100 complete control) Corn (corn (Zea mays); 31 g ai/ha Preemergence): 5
- Plant response rating (0 no effect, 100 complete control) Corn (corn (Zea mays); 62 g ai/ha Preemergence): 13
- Plant response rating (0 no effect, 100 complete control) Corn (corn (Zea mays); 125 g ai/ha Preemergence): 48
- Plant response rating (0 no effect, 100 complete control) Velvetleaf ([1]; 4 g ai/ha Preemergence): 0
- Plant response rating (0 no effect, 100 complete control) Velvetleaf ([1]; 8 g ai/ha Preemergence): 0
- Plant response rating (0 no effect, 100 complete control) Velvetleaf ([1]; 16 g ai/ha Preemergence): 0
- Plant response rating (0 no effect, 100 complete control) Velvetleaf ([1]; 31 g ai/ha Preemergence): 0
- Plant response rating (0 no effect, 100 complete control) Velvetleaf ([1]; 62 g ai/ha Preemergence): 0
- Plant response rating (0 no effect, 100 complete control) Velvetleaf ([1]; 125 g ai/ha Preemergence): 0
- Plant response rating (0 no effect, 100 complete control) Ragweed ([2]; 16 g ai/ha Preemergence): 0
- Plant response rating (0 no effect, 100 complete control) Ragweed ([2]; 31 g ai/ha Preemergence): 0
- Plant response rating (0 no effect, 100 complete control) Ragweed ([2]; 62 g ai/ha Preemergence): 0
- Plant response rating (0 no effect, 100 complete control) Ragweed ([2]; 125 g ai/ha Preemergence): 0
- Plant response rating (0 no effect, 100 complete control) Ryegrass, Italian ([3]; 16 g ai/ha Preemergence): 0
- Plant response rating (0 no effect, 100 complete control) Ryegrass, Italian ([3]; 31 g ai/ha Preemergence): 25
- Plant response rating (0 no effect, 100 complete control) Ryegrass, Italian ([3]; 62 g ai/ha Preemergence): 65
- Plant response rating (0 no effect, 100 complete control) Ryegrass, Italian ([3]; 125 g ai/ha Preemergence): 92
